Assay [1] relates to T332S site directed mutant virus. Nature of the assay: Anti-viral sensitivity of site directed mutants, T332S. Type of assay: cell-based, HIV-1. As to conditions: genotype T332S, sensitivity relative to wt virus. An excerpt:
(§1) Viruses. NLRepRluc virus contains the Renilla luciferase marker in place of the viral nef gene. The proviral plasmid pNLRepRluc was constructed at Bristol-Myers Squibb, starting from a proviral NL4-3 clone (B subtype) that was obtained from the NIH AIDS Research and Reference Reagent Program. The parental recombinant wild type (WT) virus (NLRepRlucP373S) was derived from NLRepRluc and contains the additional substitution of P373 for serine in Gag (within the SP1 spacer), the most common 373 variation in subtype B. Other recombinant viruses (A364V, V370A/ΔT371 and the “T3325 triple” (T332S/V362I+HIV-1 protease R41G)) were generated by site-directed mutagenesis of plasmid pNLRepRlucP373S to introduce those amino acid substitutions in Gag and protease. […] Titers of virus stocks were determined using a luciferase assay (Dual-Luciferase® Reporter Assay System, Promega, Milwaukee, Wis., USA) endpoint.
(§2) Multiple cycle drug susceptibility assay. […] After 4-5 day incubation at 37° C./CO2, virus yields were determined by Renilla luciferase activity (Dual-Luciferase® Reporter Assay System, Promega). The endpoint luminescence was detected on a Wallac Trilux (PerkinElmer).
(§3) Starting from wt virus, the HIV protease R41G substitution was detected in one of three in vitro selections for resistance to the MI compound above along with Gag V362I and Gag T332S. […]

Assay [2] relates to T332S/prR41G site directed mutant virus. Nature of the assay: Anti-viral sensitivity of site directed mutants, T332S/prR41G. As to conditions: genotype T332S/prR41G, sensitivity relative to wt virus. Type of assay: cell-based, HIV-1.
Source text: as §1, §2, §3

In another assay the test system is HIV-1 strain NL4-4 virus. Nature of the assay: Selection for resistance to the MI compound, EC50 for the starting virus. The settings on record: Human immunodeficiency virus 1, read-out: EC50 for this virus. In kind it is cell-based. An excerpt:
T332sN362I/Pr R41G (N14.3, B Clade) virus′ was obtained as follows: Selection for resistance of HIV-1 strain […] virus with the HIV maturation inhibitor (MI) compound
At passage 8 virus was harvested and sequenced.

The subject of assay [3] is T332S/V362I site directed mutant virus. Nature of the assay: Anti-viral sensitivity of site directed mutants, T332S/V362I. Type of assay: cell-based, HIV-1. As to conditions: genotype T332S/V362I, sensitivity relative to wt virus.
Source text: as §1, §2, §3

Assay [4] has as its system V362I/prR41G site directed mutant virus. Nature of the assay: Anti-viral sensitivity of site directed mutants, V362I/prR41G. In kind it is cell-based, HIV-1. The settings on record: genotype V362I/prR41G, sensitivity relative to wt virus.
Source text: as §1, §2, §3

The test system of assay [5] is T332S/V362I/Pr R41G virus. Nature of the assay: microbe, parasite or virus in culture. Type of assay: cell-based, HIV-1. The settings on record: genotype T332S/V362I/Pr41G, sensitivity relative to wt virus. The essentials:
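Multiple-cycle susceptibility: MT-2 cells, 10,000 per well, exposed to 3-fold compound dilutions at 1% DMSO after infection with luciferase-normalized inoculum. Virus: NL4-3-derived Renilla reporter (Gag P373S) with Gag T332S/V362I and protease R41G. Readout Renilla luciferase after 4–5 days, 37 °C.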

Assay [6] has as its system HIV protease R41G site directed mutant virus. Nature of the assay: Anti-viral sensitivity of site directed mutants, HIV protease R41G. Type of assay: cell-based, HIV-1. The settings on record: genotype HIV protease R41G, sensitivity relative to wt virus.
Source text: as §1, §2, §3

In assay [7] the test system is viruses that contain T332S and HIV protease R41G combinations, with and without V362I. Nature of the assay: Anti-viral sensitivity of site directed mutants, single and double combinations summarised in text. In kind it is cell-based, HIV-1. As to conditions: viruses with only a single change. The text has this: Starting from wt virus, the HIV protease R41G substitution was detected in one of three in vitro selections for resistance to the MI compound above along with Gag V362I and Gag T332S. R41G is not a primary PI resistance substitution^i and is not present in the LANL database (2010). There is a single report of R41G associated with in vitro selection for resistance to an investigational PI^ii. […] A related change, R41K, is a common subtype B polymorph (27% of LANL database), and R41K may be involved in the emergence of protease resistance to an investigational protease inhibitor.^iii R41 is located in a loop proximal to the HIV-1 protease substrate binding site, and this change might act allosterically to facilitate closing the protease active site pocket over the substrate, thereby allowing catalysis. It might be that R41G alters the dynamics of the loop motion and the final positioning of the loop, which could cause the active site to better recognize the primary MI compound (above)-selected changes (V362I/T332S). An analysis of the V362I/T332S/Pr R41G substitutions, and their effects on MI compound susceptibility and viral growth, are described in the Table 1 below:
Viruses were constructed that contain T332S and HIV protease R41G combinations, with and without V362I.). […]

For assay [8], the system named is V362I site directed mutant virus. Nature of the assay: Anti-viral sensitivity of site directed mutants, V362I. Type of assay: cell-based, HIV-1. The settings on record: genotype V362I, sensitivity relative to wt virus.
Source text: as §1, §2, §3

For the compound `C=C(C)[C@@H]1CC[C@]2(NCCN3CCS(=O)(=O)CC3)CC[C@]3(C)[C@H](CC[C@@H]4[C@@]5(C)CC=C(c6ccc(C(=O)O)cc6)C(C)(C)[C@@H]5CC[C@]43C)[C@@H]12` [MI compound], the Fold wt in [1] is given as 1.9; in [2], 6.1; in [3], 5.7; in assay [4] it was 9.3; in assay [5] it was 217; in assay [6], 1.5. Also, the Fold wt in assay [8] came to 2.2. Besides, in the assay on HIV-1 strain NL4-4 virus, the concentration giving a half-maximal response (EC50) was determined as 2 nM. In addition, the fold less sensitive in assay [7] came out at 2 fold.

What is called EC50 is the concentration needed to bring the measured effect to its halfway point.
